Four compounds from ChEMBL document CHEMBL3396950, “Enantioselective synthesis of dictyoceratin-A (smenospondiol) and -C, hypoxia-selective growth inhibitors from marine sponge” (Bioorg Med Chem, 2015) can be followed below.

In the assay the test system is DU-145. Briefly: Antiproliferative activity against human DU145 cells assessed as growth inhibition treated after 12 hrs hypoxic condition and incubated additional 24 hrs under hypoxic condition by MTT assay. Type of assay: functional, cell-based.

As to `C=C1CCC[C@H]2[C@](C)(Cc3cc(C(=O)OC)cc(O)c3O)[C@@H](C)CC[C@]12C`, the inhibition result was “Dose-dependent effect”. For `C=C1CCC[C@H]2[C@](C)(Cc3cc(C(=O)OC)ccc3O)[C@@H](C)CC[C@]12C`, the inhibition result is “Dose-dependent effect”. As for `C=C1CCC[C@@H]2[C@@](C)(Cc3cc(C(=O)OC)cc(O)c3O)[C@H](C)CC[C@@]12C`, the inhibition entry was “Dose-dependent effect”. On to `C=C1CCC[C@@H]2[C@@](C)(Cc3cc(C(=O)OC)ccc3O)[C@H](C)CC[C@@]12C`, for which the inhibition result was “Dose-dependent effect”.
